In PMC8704748, “Repurposing the Trypanosomatidic GSK Kinetobox for the Inhibition of Parasitic Pteridine and Dihydrofolate Reductases” (Pharmaceuticals, 2021):
Entries after “also recorded” stand apart in the source; their conditions may differ. Read-outs that look alike come from different tables or passages of the source.

Assays:
LmDHFR-TS = LmDHFR-TS (Leishmania major, UniProt P07382); assay: LmDHFR-TS inhibition, spectrophotometric DHF reduction assay (dose-response); type: biochemical; conditions: recombinant LmDHFR-TS; 40, 20 and 10 µM tested; standard errors within ± 10%
Chain of LmDHFR-TS (P07382 whole entry): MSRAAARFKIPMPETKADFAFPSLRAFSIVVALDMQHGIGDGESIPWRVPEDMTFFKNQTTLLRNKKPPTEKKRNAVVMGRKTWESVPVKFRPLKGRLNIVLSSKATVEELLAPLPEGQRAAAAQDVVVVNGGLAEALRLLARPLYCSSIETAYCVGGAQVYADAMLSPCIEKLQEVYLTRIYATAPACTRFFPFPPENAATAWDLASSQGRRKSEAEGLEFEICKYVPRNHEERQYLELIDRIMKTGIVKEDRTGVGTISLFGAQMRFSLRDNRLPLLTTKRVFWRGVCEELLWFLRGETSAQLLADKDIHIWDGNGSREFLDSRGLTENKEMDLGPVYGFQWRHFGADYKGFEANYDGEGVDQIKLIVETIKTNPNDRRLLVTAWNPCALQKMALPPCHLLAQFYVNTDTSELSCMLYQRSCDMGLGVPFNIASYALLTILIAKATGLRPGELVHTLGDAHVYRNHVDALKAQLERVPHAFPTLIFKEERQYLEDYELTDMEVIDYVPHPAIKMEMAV

TbDHFR-TS = TbDHFR-TS (Trypanosoma brucei brucei, UniProt Q27783); assay: TbDHFR-TS inhibition, spectrophotometric DHF reduction assay (dose-response); type: biochemical; conditions: recombinant TbDHFR-TS; 40, 20 and 10 µM tested; standard errors within ± 10%
Chain of TbDHFR-TS (Q27783 whole entry): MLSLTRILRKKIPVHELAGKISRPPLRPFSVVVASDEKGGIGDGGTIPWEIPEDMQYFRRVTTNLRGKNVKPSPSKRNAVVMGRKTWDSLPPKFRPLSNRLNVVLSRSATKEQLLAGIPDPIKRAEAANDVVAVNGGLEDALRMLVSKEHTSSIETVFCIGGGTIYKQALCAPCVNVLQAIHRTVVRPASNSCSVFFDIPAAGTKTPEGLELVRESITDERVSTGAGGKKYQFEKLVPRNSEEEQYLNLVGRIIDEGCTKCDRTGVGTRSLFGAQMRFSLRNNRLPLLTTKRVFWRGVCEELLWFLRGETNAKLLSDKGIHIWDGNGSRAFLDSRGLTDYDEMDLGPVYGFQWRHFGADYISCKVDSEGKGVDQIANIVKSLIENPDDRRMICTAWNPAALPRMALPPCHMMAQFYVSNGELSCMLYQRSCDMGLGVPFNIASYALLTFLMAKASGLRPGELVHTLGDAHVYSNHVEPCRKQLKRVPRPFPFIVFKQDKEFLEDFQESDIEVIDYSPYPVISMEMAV

T. brucei = test system: T. brucei; parameters: method as in PMID 25740547; conditions: parasite growth inhibition, data from open resource GSK database ref 21, cited from earlier work
LmPTR1 = biological target: T1, LmPTR1 (Leishmania major, UniProt Q01782); assay: LmPTR1 inhibition, Cytochrome C coupled spectrophotometric assay; type: biochemical; conditions: for IC50: recombinant protein, standard errors within ± 10%; for inhibition at 10 µM: primary screening, read-out: percentage of inhibition LmPTR1
T1 sequence (Q01782 1-288): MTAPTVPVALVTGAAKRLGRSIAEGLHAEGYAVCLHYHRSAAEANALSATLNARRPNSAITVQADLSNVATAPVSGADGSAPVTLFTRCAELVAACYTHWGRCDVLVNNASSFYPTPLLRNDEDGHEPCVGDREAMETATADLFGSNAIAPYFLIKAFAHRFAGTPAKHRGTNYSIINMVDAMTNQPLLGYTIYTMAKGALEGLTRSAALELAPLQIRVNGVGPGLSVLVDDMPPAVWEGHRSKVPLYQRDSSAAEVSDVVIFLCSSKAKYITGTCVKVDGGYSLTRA

TbPTR1 = biological target: T2, TbPTR1 (Trypanosoma brucei brucei, UniProt O76290); assay: TbPTR1 inhibition, Cytochrome C coupled spectrophotometric assay; type: biochemical; conditions: for IC50: recombinant protein, standard errors within ± 10%; for inhibition at 10 µM: primary screening, read-out: percentage of inhibition TbPTR1
T2 sequence (O76290 1-268): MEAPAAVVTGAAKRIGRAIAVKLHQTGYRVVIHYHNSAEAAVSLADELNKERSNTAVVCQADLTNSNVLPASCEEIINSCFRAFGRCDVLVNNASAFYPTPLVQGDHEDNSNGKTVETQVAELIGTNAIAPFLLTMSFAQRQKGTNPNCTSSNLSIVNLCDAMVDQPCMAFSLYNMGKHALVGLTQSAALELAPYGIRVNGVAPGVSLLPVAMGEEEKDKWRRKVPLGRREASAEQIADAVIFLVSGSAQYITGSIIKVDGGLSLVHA

L. donovani = test system: L. donovani; parameters: method as in PMID 25740547; conditions: parasite growth inhibition, data from open resource GSK database ref 21, cited from earlier work
T. cruzi = test system: T. cruzi; parameters: method as in PMID 25740547; conditions: parasite growth inhibition ref 21; cited from earlier work

CC(c1cc(Cl)cc(Cl)c1)N(C)c1ncc2c(N)nc(N)nc2n1 (centres unmarked) [TCMDC-143297]
IC50 (LmDHFR-TS): 20.1 µM
IC50 (TbDHFR-TS): 11.6 µM
EC50 (T. brucei): 35.7 µM
IC50 (LmPTR1): 5.7 µM
IC50 (TbPTR1): 9.8 µM
EC50 (L. donovani): 0.6 µM

CCN(Cc1nc2ccc(C(=O)N3CCN(c4ncccn4)CC3)cc2[nH]1)C1CCCc2cccnc21 (centres unmarked) [TCMDC-143518]
IC50 (LmDHFR-TS): 25 µM
IC50 (TbDHFR-TS): > 40 µM
EC50 (T. brucei): 3.8 µM
inhibition at 10 µM (LmPTR1): 59%
IC50 (LmPTR1): 8.5 µM
IC50 (TbPTR1): 33.3 µM
EC50 (L. donovani): 3.5 µM

COc1ccc(C(C)N(C)c2ncc3c(N)nc(N)nc3n2)cc1F (centres unmarked) [TCMDC-143298]
IC50 (LmDHFR-TS): > 40 µM
IC50 LmDHFR (LmDHFR-TS): did not show any activity
IC50 (TbDHFR-TS): > 40 µM
IC50 TbDHFR (TbDHFR-TS): did not show any activity
EC50 (T. brucei): 8.8 µM
IC50 (LmPTR1): 6 µM
IC50 (TbPTR1): 8.1 µM
EC50 (L. donovani): 10.8 µM

CCCc1nc2nc(N)nc(N)c2cc1CC [TCMDC-143606]
IC50 (LmDHFR-TS): 19.4 µM
IC50 (TbDHFR-TS): > 40 µM
EC50 (T. brucei): ~20 µM
EC50 (T. brucei; listed as 143606): 22.5 µM
IC50 (LmPTR1): ~6 µM
IC50 (LmPTR1; listed as 143606): 6.8 µM
IC50 (TbPTR1): ~6 µM
IC50 (TbPTR1; listed as 143606): 6.4 µM
EC50 (L. donovani): ~20 µM
EC50 (L. donovani; listed as 143606): 27.2 µM

COc1ccccc1-c1c(C)[nH]c2nc(N)nc(C)c12 [TCMDC-143610]
IC50 (LmDHFR-TS): 40 µM
IC50 (TbDHFR-TS): 38.2 µM
EC50 (T. brucei): 32.5 µM
IC50 (LmPTR1): 9.3 µM
IC50 (TbPTR1): 7.3 µM
EC50 (L. donovani): 17.9 µM

CC(c1ccc2c(c1)CCCC2)N(C)c1ncc2c(N)nc(N)nc2n1 (centres unmarked) [TCMDC-143296]
IC50 (LmDHFR-TS): 6.9 µM
IC50 (TbDHFR-TS): 9.7 µM
EC50 (T. brucei): 14.2 µM
IC50 (LmPTR1): 6.5 µM
IC50 (TbPTR1): 8.6 µM
EC50 (L. donovani): 1.8 µM

Cc1nc2c(-c3ncn[nH]3)cc(NC(=O)Cc3ccccc3)cn2c1C [TCMDC-143459]
IC50 (LmDHFR-TS): > 40 µM
IC50 (TbDHFR-TS): > 40 µM
EC50 (T. brucei): 6.6 µM
IC50 (LmPTR1): > 40 µM
inhibition at 10 µM (TbPTR1): 51%
IC50 (TbPTR1): 9.8 µM
EC50 (L. donovani): 0.5 µM

Cc1cc(-c2ccc3ccccc3c2)nc2nc(N)nc(N)c12 [TCMDC-143607]
IC50 (LmDHFR-TS): > 40 µM
IC50 (TbDHFR-TS): > 40 µM
EC50 (T. brucei): 25.8 µM
IC50 (LmPTR1): 8.1 µM
IC50 (TbPTR1): 7.3 µM
EC50 (L. donovani): 2.7 µM

N#Cc1cccc(Nc2nccc(N3CCC(NS(=O)(=O)c4cccc(C#N)c4)CC3)n2)c1 [TCMDC-143249]
IC50 (LmDHFR-TS): > 40 µM
IC50 LmDHFR (LmDHFR-TS): inactive; also recorded: no inhibition
EC50 (T. cruzi): 4.2 µM
IC50 (TbDHFR-TS): > 40 µM
IC50 TbDHFR (TbDHFR-TS): inactive; also recorded: no inhibition
EC50 (T. brucei): 6.3 µM
IC50 (LmPTR1): 6 µM
IC50 (TbPTR1): 13.5 µM
EC50 (L. donovani): 5.6 µM

Cc1cc(N(C)C)nc2ccc(Cc3cnc(N)nc3N)cc12 [TCMDC-143611]
IC50 (LmDHFR-TS): > 40 µM
IC50 (TbDHFR-TS): > 40 µM
EC50 (T. brucei): 5 µM
IC50 (LmPTR1): 9.8 µM
IC50 (TbPTR1): 8.9 µM
EC50 (L. donovani): > 40 µM

O=C1NCCn2ccc(Nc3nc(N[C@H]4CC[C@H](O)CC4)ncc3Cl)c21 [TCMDC-143386]
IC50 (LmDHFR-TS): 25.8 µM
IC50 (TbDHFR-TS): > 40 µM
EC50 (T. brucei): 0.6 µM
inhibition at 10 µM (LmPTR1): 75%
IC50 (LmPTR1): 6.7 µM
IC50 (TbPTR1): 35 µM
EC50 (L. donovani): 1.4 µM

COc1ccc(Oc2ccc(C(C)N(C)c3ncc4c(N)nc(N)nc4n3)cc2)cc1 (centres unmarked) [TCMDC-143295]
IC50 (LmDHFR-TS): 16.6 µM
IC50 (TbDHFR-TS): > 40 µM
IC50 TbDHFR (TbDHFR-TS): not active
IC50 (LmPTR1): 6.7 µM
IC50 (TbPTR1): 7.9 µM
EC50 (L. donovani): 0.06 µM

CN(Cc1cc2ccccc2s1)c1ncc2c(N)nc(N)nc2n1 [TCMDC-143232]
IC50 (LmDHFR-TS): 24.4 µM
IC50 (TbDHFR-TS): > 40 µM
IC50 TbDHFR (TbDHFR-TS): not active
EC50 (T. brucei): 28.4 µM
IC50 (LmPTR1): 5.9 µM
IC50 (TbPTR1): 10.9 µM
EC50 (L. donovani): 29.5 µM

Cc1ccc2c(c1)-c1onc(C(=O)N3CCCC[C@H]3c3cccnc3)c1CO2 [TCMDC-143191]
IC50 (LmDHFR-TS): > 40 µM
IC50 (TbDHFR-TS): > 40 µM
EC50 (T. brucei): 39.8 µM
IC50 (LmPTR1): 38.5 µM
inhibition at 10 µM (TbPTR1): 51%
IC50 (TbPTR1): 9.8 µM
EC50 (L. donovani): > 40 µM
